Test results taken from patent US9072778B2, “Treatment regimen for N-MYC, c-MYC, and L-MYC amplified and overexpressed tumors” (UNIVERSITY OF HAWAII, priority 2005, dated 2015).

What was measured:
[1] = system: human ovarian cancer cells (SKOV-3); experiment: Growth, proliferation and morphology of ovarian cancer cells; type: cell-based; conditions: DFMO or SAM486A
Source text: (Bachmann, A S, (2004) Hawaii Med. Journal, 63:371-373, which is incorporated herein by reference in its entirety). […] Micrographs were taken using an inverted phase contrast microscope (Nikon). In comparison with the ovarian cancer cells SKOV-3, the growth and proliferation of NB cells LAN-1 was inhibited much more drastically and caused significant morphological changes after only 3 days of treatment.
Similar effects were already apparent after 1-2 days (not shown). By comparison, the treatment of human melanoma cells (MALME-3) with polyamine inhibitors required more extensive incubation times (8-12 days) and led to less obvious rearrangements in cell structures (Kramer et al., (2001). Cancer Res, 61, 7754-62, which is incorporate herein by reference in its entirety).

ODC = target: T1, ODC (Homo sapiens, UniProt P11926); experiment: ODC enzyme activity in lysates of inhibitor-treated NB cells; type: cell-based; conditions: DFMO = 5 mM, SAM486A = 10 μM, mean ± SD
T1 construct: enzyme activities were measured in cell lysates; endogenous in cells
T1 sequence (P11926 1-461): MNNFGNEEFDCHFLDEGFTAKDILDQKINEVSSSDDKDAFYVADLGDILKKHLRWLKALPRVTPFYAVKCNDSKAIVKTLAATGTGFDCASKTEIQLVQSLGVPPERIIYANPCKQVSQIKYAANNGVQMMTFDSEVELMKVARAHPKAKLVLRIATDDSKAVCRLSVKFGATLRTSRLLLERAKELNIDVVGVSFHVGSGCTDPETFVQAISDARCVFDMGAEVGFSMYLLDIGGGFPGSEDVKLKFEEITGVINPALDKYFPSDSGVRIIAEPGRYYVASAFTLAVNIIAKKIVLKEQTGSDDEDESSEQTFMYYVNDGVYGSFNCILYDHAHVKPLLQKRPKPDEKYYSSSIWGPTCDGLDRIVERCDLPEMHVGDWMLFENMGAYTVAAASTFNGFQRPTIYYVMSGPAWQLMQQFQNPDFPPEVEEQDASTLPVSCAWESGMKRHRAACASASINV
Experimental: (§1) Human NB cell lines were provided by Dr. Robert Seeger (LAN-1; University of California, Los Angeles, Calif.), Dr. Nai-Kong Cheung (NMB-7; Memorial Sloan-Kettering Cancer Center, NY), and the American Type Culture Collection (SK-N-SH; ATCC, Manassas, Va.). Cells were maintained in RPMI 1640 (Biosource, Rockeville, Md.) containing 10% heat-inactivated fetal bovine serum (FBS) (Invitrogen, Carlsbad, Calif.), penicillin (100 IU/ml) and streptomycin (100 μg/ml). If cells were treated with exogenous Spd, 1 mM of aminoguanidine was included as an inhibitor of serum polyamine oxidation. […] For growth and proliferation inhibition, polyamine pool, and cell cycle studies, 10 μM Spd was added together with inhibitors, and cells were assayed on days 2 and/or 3.
ODC and AdoMetDC enzyme activities were determined using a standard assay known in the art. In brief, NB cells were washed twice with ice-cold PBS and harvested in 50 mM sodium phosphate buffer (pH 7.2), 0.1 mM EDTA, 2.5 mM DTT, supplemented with 1× protease inhibitor cocktail (Roche Molecular Biochemicals, Indianapolis, Ind.). For the measurement of AdoMetDC activity, cells were harvested in the above buffer supplemented with 2.5 mM Put. Cells were lysed by three freeze/thaw cycles and cell lysates were prepared by centrifugation for 20 minutes at 14,000 rpm and 4° C. ODC activity was measured in a reaction mixture that contained 20 μM L-[1-^14C]ornithine (47.70 mCi/mmol; NEN Life Science Products, Boston, Mass.). AdoMetDC activity was assayed in a reaction mixture that contained 8.2 μM S-adenosyl-L-[carboxy-^14C]methionine (58.0-61.0 mCi/mmol; Amersham Biosciences, Piscataway, N.J.) and 140.1 μM cold S-adenosylmethionine. […] Untreated or SAM486A-treated LAN-1 extracts were assayed for AdoMetDC activity after multiple rounds of sequential dilution with harvest buffer followed by concentration of the extract (Centricon YM-10, Millipore Corporation, Bedford, Mass.) to remove the inhibitor.

LAN-1 cells = experiment: Cell cycle phase distribution (propidium iodide), LAN-1; type: cell-based, human; conditions: DFMO = 5 mM, SAM486A = 10 μM, Spd = 10 μM, mean ± SD
Source text: This profile, which is typical for cell cycle arrest at G1, was enhanced by the combination of both inhibitors, with the majority of cells in G1 (˜71-73%), a reduced number of cells in S phase (˜20-28%), and a small portion in G2/M (˜2-7%).
as §1

p27^Kip1 = experiment: Western blot of p27Kip1 in inhibitor-treated NB cells; type: cell-based, human; conditions: LAN-1 and NMB-7; 5 mM DFMO, 10 μM SAM486A; days 2 and 3, relative to untreated control
Experimental: To further investigate the mechanism that regulates G1 arrest in LAN-1 and NMB-7 cells, and to define the changes in associated protein responses, the cell cycle-related proteins p21^Waf1/Cip1, p27^Kip1, p53, Rb, and MYCN in NB cell lysates were studied. Cells were analyzed on days 1, 2, and 3. Equal amounts of total protein were loaded in all experiments. Proteins were scanned and the ratio of hypophosphorylated Rb (pRb) (lower band):hyperphosphorylated Rb (ppRb) (upper band) was calculated (b). MYCN bands were quantified and normalized relative to β-actin. Values are presented as percentage (%) of controls of day 1, 2 or 3. (c). The data are representative of at least three independent experiments. […] To test for the presence of the cdk inhibitor protein p21^Waf1/Cip1, identical experiments were conducted, but the protein could not be detected (not shown). Low levels of p21^Waf1/Cip1 in NB cells have been previously described (McKenzie et al., (2003). Cancer Res, 63, 3840-4, which is incorporated herein by reference in its entirety). Similarly, the tumor suppressor protein p53 was not detected (not shown), which is in agreement with previous findings that cell lines LAN-1 and NMB-7 are p53 deficient. In contrast, p53 was readily expressed in identical Western blot control experiments and detected by immunofluorescence using the p53 wild type cell line SK-N-SH (not shown).

| Specific enzyme activity ODC (ODC; LAN-1, 2 days after treatment) [% OF CONTROL] | Specific enzyme activity ODC (ODC; NMB-7, 2 days after treatment) [% OF CONTROL] | SMILES | cell morphology [1] | Cell cycle G1 (LAN-1 cells; LAN-1, day 2) [% TOTAL CELLS] | Cell cycle G2/M (LAN-1 cells; LAN-1, day 2) [% TOTAL CELLS] | Cell cycle S (LAN-1 cells; LAN-1, day 2) [% TOTAL CELLS] | Cell cycle G1 (LAN-1 cells; LAN-1, day 3) [% TOTAL CELLS] | Cell cycle G2/M (LAN-1 cells; LAN-1, day 3) [% TOTAL CELLS] | Cell cycle S (LAN-1 cells; LAN-1, day 3) [% TOTAL CELLS] | p27^Kip1 protein levels (p27^Kip1) |
| --- | --- | --- | --- | --- | --- | --- | --- | --- | --- | --- |
| 26 ± 2 | 25 ± 8 | NCCC[C@](N)(C(=O)O)C(F)F [DFMO, α-difluoromethylornithine] | no visible changes in cell morphology | 62.1 ± 10.4 | 11.5 ± 3.0 | 26.4 ± 7.5 | 63.1 ± 12.2 | 6.2 ± 4.1 | 30.8 ± 8.2 | increased endogenous levels of cdk inhibitor protein p27^Kip1 |
| 240 ± 27 | 251 ± 42 | N=C(N)c1cccc2c1CC/C2=N\N=C(N)N [SAM486A, 4-amidinoindan-1-one 2′-amidinohydrazone] | no visible changes in cell morphology | 58.7 ± 8.3 | 9.6 ± 3.2 | 31.7 ± 6.8 | 53.3 ± 5.1 | 9.3 ± 2.0 | 37.4 ± 3.5 | did not alter p27^Kip1 levels |
